In BindingDB's records for doi:10.1016/j.bmcl.2013.04.079 (Bristol-Myers Squibb, 2013) one finds IC50 data, which are given here for 29 molecules.

The nature of assay [1]: Antagonist activity at human CCR1 assessed as inhibition of MIP1alpha-induced chemotaxis.
The nature of assay [2]: Antagonist activity at human CCR1 assessed as inhibition of ieukotactin-1-induced chemotaxis.
Assay [3] can be described thus: Antagonist activity at human CCR1 assessed as inhibition of RANTES-induced chemotaxis.
A short description of assay [4]: Antagonist activity at human CCR1 assessed as inhibition of MPIF-1-induced chemotaxis.
The nature of assay [5]: Antagonist activity at human CCR1 assessed as inhibition of HCC-1-induced chemotaxis.

The structures appear in SMILES notation.

One may read the IC50 as the concentration that inhibits the measured activity by half. `CC(C)[C@@H](NC(=O)[C@H]1CC[C@H](O)C1)C(=O)N1CC[C@](O)(c2ccc(Cl)cc2)C(C)(C)C1`: the 50% inhibitory concentration (IC50) in assay [1] amounted to 12 nM.
The same measure, in the same setting: the value for `CC(C)[C@@H](NC(=O)[C@@H]1CCC[C@@H]1N)C(=O)N1CC[C@](O)(c2ccc(Cl)cc2)C(C)(C)C1` was 5.6 nM.
`CC(C)[C@@H](NC(=O)c1cccnc1)C(=O)N1CC[C@](O)(c2ccc(Cl)cc2)C(C)(C)C1`: in assay [1], the IC50 was found to be 6.1 nM.
Same read-out and setting: the value for `CC(C)[C@@H](NC(=O)Cc1ccncc1)C(=O)N1CCC(c2ccc(Cl)cc2)CC1` was 107 nM; that for `CC(C)[C@@H](NC(=O)c1ccc(F)c(O)c1)C(=O)N1CC[C@](O)(c2ccc(Cl)cc2)C(C)(C)C1` was 13 nM.
On to `CC(C)CCC(=O)N[C@@H](C(=O)N1CC[C@](O)(c2ccc(Cl)cc2)C(C)(C)C1)C(C)C`, for which the IC50 in assay [1] was found to be 1.2 nM.
On the same count and under the same terms, the value for `CC(C)[C@@H](NC(=O)c1cccc(-c2ccccc2NC(N)=O)c1)C(=O)N1CCC(c2ccc(Cl)cc2)CC1` was 153 nM; that for `CC(C)[C@@H](NC(=O)Cc1ccncc1)C(=O)N1CC[C@](O)(c2ccc(Cl)cc2)C(C)(C)C1` was 3.5 nM.
For the molecule `CC(C)[C@@H](NC(=O)C1CCCC1(O)CCN1CCOCC1)C(=O)N1CC[C@](O)(c2ccc(Cl)cc2)C(C)(C)C1` (stereo partly drawn), the IC50 in assay [1] is 8.3 nM.
Regarding `CC(C)[C@@H](NC(=O)c1cccc(-c2ccccc2NC(N)=O)c1)C(=O)N1CC[C@](O)(c2ccc(Cl)cc2)C(C)(C)C1`, the 50% inhibitory concentration (IC50) in assay [1] amounted to 48 nM.
In the case of `CC(C)[C@@H](NC(=O)[C@@H]1CC[C@@H](O)C1)C(=O)N1CC[C@](O)(c2ccc(Cl)cc2)C(C)(C)C1`, the IC50 in assay [2] came out at 4.4 nM; in assay [3], 1 nM; in assay [4], 2.7 nM; in assay [1], 2.1 nM; in assay [5] it was 4 nM.
For the molecule `CC(C)[C@@H](NC(=O)c1cccc(S(N)(=O)=O)c1)C(=O)N1CC[C@](O)(c2ccc(Cl)cc2)C(C)(C)C1`, in assay [1], the IC50 worked out at 9.9 nM.
Still for that read-out and setting: the value for `CC(C)CC(=O)N[C@@H](C(=O)N1CC[C@](O)(c2ccc(Cl)cc2)C(C)(C)C1)C(C)C` was 1.9 nM; that for `CC(C)[C@@H](NC(=O)c1ccc(Cl)cc1)C(=O)N1CC[C@](O)(c2ccc(Cl)cc2)C(C)(C)C1` was 5.5 nM.
The same measure, in the same setting: the value for `CC(C)[C@@H](NC(=O)C1CCCC1)C(=O)N1CCN(c2ccc(Cl)cc2)C(C)(C)C1` was 18 nM.
With `CC(C)[C@@H](NC(=O)Cc1ccccc1)C(=O)N1CC[C@](O)(c2ccc(Cl)cc2)C(C)(C)C1`, in assay [1], the IC50 amounted to 1.8 nM.
On the same count and under the same terms, the value for `CC(C)[C@@H](NC(=O)c1ccccc1Cl)C(=O)N1CC[C@](O)(c2ccc(Cl)cc2)C(C)(C)C1` was 4.7 nM; that for `CC(C)[C@@H](NC(=O)[C@H]1CC[C@@H](O)C1)C(=O)N1CC[C@](O)(c2ccc(Cl)cc2)C(C)(C)C1` was 1.1 nM; that for `CC(C)[C@@H](NC(=O)c1cccnc1)C(=O)N1CC[C@H](c2ccc(Cl)cc2)C(C)(C)C1` was 29 nM.
On the same count and under the same terms, the value for `CC(C)[C@@H](NC(=O)C1CCCC1)C(=O)N1CC[C@](O)(c2ccc(Cl)cc2)C(C)(C)C1` was 2.5 nM.
Same read-out and setting: the value for `CC(=O)N[C@@H](C(=O)N1CC[C@](O)(c2ccc(Cl)cc2)C(C)(C)C1)C(C)C` was 15 nM.
Regarding `CC(C)[C@@H](NC(=O)c1ccccc1)C(=O)N1CC[C@](O)(c2ccc(Cl)cc2)C(C)(C)C1`, the IC50 in assay [1] was found to be 10 nM.
The same measure, in the same setting: the value for `CC(C)[C@@H](NC(=O)c1cccnc1)C(=O)N1CC[C@](O)(c2ccc(Cl)cc2)C2(CC2)C1` was 21 nM.
With `CC(C)[C@@H](NC(=O)[C@@H]1CCC[C@@H]1O)C(=O)N1CC[C@](O)(c2ccc(Cl)cc2)C(C)(C)C1`, the IC50 in assay [1] came out at 3.1 nM.
Same read-out and setting: the value for `CCC(=O)N[C@@H](C(=O)N1CC[C@](O)(c2ccc(Cl)cc2)C(C)(C)C1)C(C)C` was 3.6 nM; that for `CC(C)[C@@H](NC(=O)c1cccc(C(=O)O)c1)C(=O)N1CC[C@](O)(c2ccc(Cl)cc2)C(C)(C)C1` was 8.9 nM.
With `CC(C)[C@@H](NC(=O)c1cccc(S(N)(=O)=O)c1)C(=O)N1CCC(c2ccc(Cl)cc2)CC1`, in assay [1], the half-maximal inhibitory concentration (IC50) came to 123 nM.
For `CC(C)[C@@H](NC(=O)[C@@H]1CC[C@H](O)C1)C(=O)N1CC[C@](O)(c2ccc(Cl)cc2)C(C)(C)C1`, the IC50 in assay [1] was determined as 2.9 nM.
In the case of `CC(C)[C@@H](NC(=O)c1ccc(F)c(O)c1)C(=O)N1CCC(c2ccc(Cl)cc2)CC1`, the IC50 in assay [1] stood at 48 nM.
